Test results as given in US9901592B2 (priority 2008, dated 2018).
Converted amounts (≈) assume the structure as drawn. “And” between values parts separate entries of the source, which are not always exact repeats. Equal values may be shown once. Read-outs that look alike come from different tables or passages of the source.

How the values were obtained:
M. fermentans = type: cell-based; conditions: M. fermentans (15 isolates)
U. urealyticum = test: MIC testing in 10B broth (colour change); type: cell-based; conditions: U. urealyticum (10 isolates)
S. pneumoniae [1] = test: microbe, parasite or virus in culture; type: cell-based; conditions: for MIC: Streptococcus pneumoniae
[2] = tested on: intraphagocytic L. pneumophila ATCC 33153 (THP-1); type: cell-based; conditions: intracellular L. pneumophila ATCC 33153
S. pneumoniae [3] = test: MIC of the strains of the mouse systemic infection model; type: cell-based; conditions: Streptococcus pneumoniae
S. pneumoniae [4] = test: mouse subcutaneous abscess model; type: in vivo; conditions: S. pneumoniae 1629, 10 mg/Kg PO
Method: Example. Efficacy was evaluated in several infection models. […] PD50s were determined 24 hr post infection. CEM-101 was further evaluated in a subcutaneous abscess mouse model against S. pneumoniae. CD-1 female mice were infected via SC injection of bacteria mixed with cyclodextran beads. Two hr post infection, mice received a single oral dose of CEM 101 or control agents. At 48 hr post dose, mice were euthanized, abscesses aseptically removed and bacteria enumerated. CFU per abscess was determined and compared to the untreated control. […] 24 hr post treatment, the thighs were processed and CFU/gram of thigh determined.
(§1) Example. Mouse Subcutaneous Abscess. Bacteria were prepared from an overnight plate culture by re-suspending in saline and adjusting the suspension to a 0.1 OD at 625 nm of a 1:10 dilution. The adjusted bacterial suspension was mixed 1:2 with cyclodextran beads prepared as per package instructions. The right flanks of the mice were shaven and injected subcutaneously with 0.2 ml of the bacterial inoculum. Two hours post infection mice were treated via oral gavage with either test article or control drug. 48 hours post infection, mice were euthanized, abscesses aseptically removed, homogenized, serially diluted and plated on bacterial growth agar. After overnight incubation, colonies were counted and CFUs/gram of abscess were determined.
Example. The ability of CEM101 to reduce the microbial load in abscess infection model was also assessed against S. pneumoniae isolates.

S. pyogenes ATCC 8668 = test: mouse subcutaneous abscess model; type: in vivo; conditions: 48 hr. post infection
Method: as §1
Example. Mouse Subcutaneous Abscess˜S. pyogenes ATCC 8668 (Average Log10 CFU/gram of Abscess). Abscess processing 48 hours post infection.

S. pneumoniae [5] = test: neutropenic mouse thigh infection; type: in vivo; conditions: PO
Method: Example. Neutropenic Mouse Thigh Infection. Mice were rendered neutropenic with IP injections of cyclophosamide at day −4 and day −1 of 150 mg/Kg and 100 mg/Kg, respectively. On day 0 mice were infected with approximately 5×10^5 CFU/ml of bacteria in a 0.1 ml volume into the right thigh. At 1.5 hours post infection mice received treatment via oral gavage. One group of infected mice were euthanized and thigh processed for bacterial titers to serve as T=0 controls. Twenty-four hours post treatment, the remaining mice were euthanized, thighs aseptically removed, weighed, homogenized, serially diluted and plated on bacterial growth media. CFUs per gram of thigh were calculated after overnight incubation of bacterial plates. The amount of test article required to achieve 1, 2, and 3 loge reductions from 24 hour control thighs were calculated. Additional studies were performed that fractionated the single treatment dose (Q24) into two (Q12), three (Q8) and four (Q6) equivalent doses to determine the pharmacodynamic nature of this compound. Further analysis includes static dose, EC50, 1 log kill and maximal effect (Emax).

S. pneumoniae [6] = test: microbe, parasite or virus in culture; type: cell-based
M. catarrhalis = test: microbe, parasite or virus in culture; type: cell-based; conditions: Moraxella catarrhalis
pneumococci = test: microbe, parasite or virus in culture; type: cell-based, S. pneumoniae
S. pneumoniae [7] = test: neutropenic mouse thigh infection; type: in vivo; conditions: QD, PO
[8] = Streptococcus pneumoniae, pneumococci, L4 mutations (27)

CC[C@H]1OC(=O)[C@H](C)C(=O)[C@H](C)[C@@H](O[C@@H]2O[C@H](C)C[C@H](N(C)C)[C@H]2O)[C@](C)(OC)C[C@@H](C)C(=O)[C@H](C)[C@H]2N(CCCCn3cnc(-c4cccnc4)c3)C(=O)O[C@]12C [TEL, telithromycin]
MIC Range (M. fermentans): 0.002 to 0.031 µg/mL
MIC50 (M. fermentans; Mycoplasmopsis fermentans): ≤ 0.008 µg/mL
MIC90 (M. fermentans; Mycoplasmopsis fermentans): 0.016 µg/mL (≈ 0.0197 µM)
MIC Range (U. urealyticum): 0.016 to 0.25 µg/mL
MIC50 (U. urealyticum; Ureaplasma urealyticum): 0.063 µg/mL (≈ 0.0776 µM)
MIC90 (U. urealyticum; Ureaplasma urealyticum): 0.25 µg/mL (≈ 0.308 µM)
strains with resistant clones / strains tested (S. pneumoniae [1]; S. pneumoniae): 5/8
MIC (S. pneumoniae [1]; read-out: Initial MIC, strain 24 Macrolide-R [erm(B)], parent): 0.25 µg/mL (≈ 0.308 µM)
MIC (S. pneumoniae [1]; read-out: Initial MIC, strain 1076 Macrolide-R [erm(B)&mef(A)], parent): 0.5 µg/mL (≈ 0.616 µM)
MIC (S. pneumoniae [1]; read-out: Initial MIC, strain 1077 Macrolide-S, parent): 0.004 µg/mL (≈ 0.00493 µM)
MIC (S. pneumoniae [1]; read-out: Initial MIC, strain 1635 Macrolide-R [erm(A)], parent): 0.004 µg/mL (≈ 0.00493 µM)
MIC (S. pneumoniae [1]; read-out: Initial MIC, strain 2686 Macrolide-R [L4 mutation], parent): 0.06 µg/mL (≈ 0.0739 µM)
MIC (S. pneumoniae [1]; read-out: Initial MIC, strain 3009 Macrolide-R [23SrRNA mutation], parent): 0.016 µg/mL (≈ 0.0197 µM)
MIC (S. pneumoniae [1]; read-out: Initial MIC, strain 3665 Macrolide-R [mef(A)], parent): 0.125 µg/mL (≈ 0.154 µM)
MIC (S. pneumoniae [1]; read-out: Initial MIC, strain 7127 Macrolide-S [S20N in L4, A105V in L22], parent): 0.008 µg/mL (≈ 0.00985 µM)
MIC (S. pneumoniae [1]; read-out: MIC of parents of resistant clones, S. pneumoniae (CEM-101: 7 strains)): 0.004 to 0.5 µg/mL
MIC (S. pneumoniae [1]; read-out: Parental MICs, S. pneumoniae, 8 strains with varying resistotypes): 0.004 to 0.5 µg/mL (≈ 0.00493 to 0.616 µM)
MIC (S. pneumoniae [1]; read-out: Selected Resistance MIC, strain 24 Macrolide-R [erm(B)], after serial passages in the drug): 32 µg/mL (≈ 39.4 µM)
MIC (S. pneumoniae [1]; read-out: Selected Resistance MIC, strain 1076 Macrolide-R [erm(B)&mef(A)], after serial passages in the drug): > 64 µg/mL
MIC (S. pneumoniae [1]; read-out: Selected Resistance MIC, strain 1077 Macrolide-S, after serial passages in the drug): 0.25 µg/mL (≈ 0.308 µM)
MIC (S. pneumoniae [1]; read-out: Selected Resistance MIC, strain 1635 Macrolide-R [erm(A)], after serial passages in the drug): 0.008 µg/mL (≈ 0.00985 µM)
MIC (S. pneumoniae [1]; read-out: Selected Resistance MIC, strain 2686 Macrolide-R [L4 mutation], after serial passages in the drug): 0.5 µg/mL (≈ 0.616 µM)
MIC (S. pneumoniae [1]; read-out: Selected Resistance MIC, strain 3009 Macrolide-R [23SrRNA mutation], after serial passages in the drug): 0.03 µg/mL (≈ 0.0369 µM)
MIC (S. pneumoniae [1]; read-out: Selected Resistance MIC, strain 3665 Macrolide-R [mef(A)], after serial passages in the drug): 2 µg/mL (≈ 2.46 µM)
MIC (S. pneumoniae [1]; read-out: Selected Resistance MIC, strain 7127 Macrolide-S [S20N in L4, A105V in L22], after serial passages in the drug): 0.06 µg/mL (≈ 0.0739 µM)
days until resistant clones (MIC increase) (S. pneumoniae [1]; daily passages, min. 14, max. 50): 14 to 38 days
Retest MIC after 10 Antibiotic-free Subcultures (S. pneumoniae [1]; strain 24 Macrolide-R [erm(B)], clone selected with CEM-101): 0.125 µg/mL
Retest MIC after 10 Antibiotic-free Subcultures (S. pneumoniae [1]; strain 24 Macrolide-R [erm(B)], clone selected with TEL): 16 µg/mL
Retest MIC after 10 Antibiotic-free Subcultures (S. pneumoniae [1]; strain 1076 Macrolide-R [erm(B)&mef(A)], clone selected with CEM-101): 32 µg/mL
Retest MIC after 10 Antibiotic-free Subcultures (S. pneumoniae [1]; strain 1076 Macrolide-R [erm(B)&mef(A)], clone selected with TEL): >64 µg/mL
Retest MIC after 10 Antibiotic-free Subcultures (S. pneumoniae [1]; strain 1077 Macrolide-S, clone selected with AZI): 0.125 µg/mL
Retest MIC after 10 Antibiotic-free Subcultures (S. pneumoniae [1]; strain 1077 Macrolide-S, clone selected with CEM-101): 0.06a μg/ml
Retest MIC after 10 Antibiotic-free Subcultures (S. pneumoniae [1]; strain 1077 Macrolide-S, clone selected with CLN): 0.06 µg/mL
Retest MIC after 10 Antibiotic-free Subcultures (S. pneumoniae [1]; strain 1077 Macrolide-S, clone selected with TEL): 0.25 µg/mL
Retest MIC after 10 Antibiotic-free Subcultures (S. pneumoniae [1]; strain 1635 Macrolide-R [erm(A)], clone selected with AZI): 0.004 µg/mL
Retest MIC after 10 Antibiotic-free Subcultures (S. pneumoniae [1]; strain 1635 Macrolide-R [erm(A)], clone selected with CEM-101): 0.03 µg/mL
Retest MIC after 10 Antibiotic-free Subcultures (S. pneumoniae [1]; strain 1635 Macrolide-R [erm(A)], clone selected with CLN): 0.008 µg/mL
Retest MIC after 10 Antibiotic-free Subcultures (S. pneumoniae [1]; strain 1635 Macrolide-R [erm(A)], clone selected with CLR): 0.016 µg/mL
Retest MIC after 10 Antibiotic-free Subcultures (S. pneumoniae [1]; strain 2686 Macrolide-R [L4 mutation], clone selected with CEM-101): 0.25 µg/mL
Retest MIC after 10 Antibiotic-free Subcultures (S. pneumoniae [1]; strain 2686 Macrolide-R [L4 mutation], clone selected with CLR): 0.06 µg/mL
Retest MIC after 10 Antibiotic-free Subcultures (S. pneumoniae [1]; strain 2686 Macrolide-R [L4 mutation], clone selected with TEL): 0.5 µg/mL
Retest MIC after 10 Antibiotic-free Subcultures (S. pneumoniae [1]; strain 3009 Macrolide-R [23SrRNA mutation], clone selected with CEM-101): 0.06 µg/mL
Retest MIC after 10 Antibiotic-free Subcultures (S. pneumoniae [1]; strain 3009 Macrolide-R [23SrRNA mutation], clone selected with CLR): 0.06 µg/mL
Retest MIC after 10 Antibiotic-free Subcultures (S. pneumoniae [1]; strain 3665 Macrolide-R [mef(A)], clone selected with CEM-101): 0.25 µg/mL
Retest MIC after 10 Antibiotic-free Subcultures (S. pneumoniae [1]; strain 3665 Macrolide-R [mef(A)], clone selected with CLR): 0.06 µg/mL
Retest MIC after 10 Antibiotic-free Subcultures (S. pneumoniae [1]; strain 3665 Macrolide-R [mef(A)], clone selected with TEL): 0.25 µg/mL
Retest MIC after 10 Antibiotic-free Subcultures (S. pneumoniae [1]; strain 7127 Macrolide-S [S20N in L4, A105V in L22], clone selected with AZI): 0.016 µg/mL
Retest MIC after 10 Antibiotic-free Subcultures (S. pneumoniae [1]; strain 7127 Macrolide-S [S20N in L4, A105V in L22], clone selected with CEM-101): 0.06 µg/mL
Retest MIC after 10 Antibiotic-free Subcultures (S. pneumoniae [1]; strain 7127 Macrolide-S [S20N in L4, A105V in L22], clone selected with CLN): 0.008 µg/mL
Retest MIC after 10 Antibiotic-free Subcultures (S. pneumoniae [1]; strain 7127 Macrolide-S [S20N in L4, A105V in L22], clone selected with CLR): 0.008 µg/mL
Retest MIC after 10 Antibiotic-free Subcultures (S. pneumoniae [1]; strain 7127 Macrolide-S [S20N in L4, A105V in L22], clone selected with TEL): 0.03 µg/mL
Cs, static concentration [2]: 0.06 mg/L
MIC (S. pneumoniae [3]; S. pneumoniae (macrolide susceptible)): < 0.06 µg/mL
MIC (S. pneumoniae [3]; S. pneumoniae (mefR), read-out: MIC): 0.25 µg/mL
MIC (S. pneumoniae [3]; S. pneumoniae serotype 19A, read-out: MIC): 0.5 µg/mL
average log10 CFU/gram of abscess (S. pneumoniae [4]; 24 hours): about 3 log10 CFU/gram
average log10 CFU/gram of abscess (S. pneumoniae [4]; 48 hours): about 4.5 log10 CFU/gram
Average Log10 CFU/gram of Abscess (S. pyogenes ATCC 8668; 10 mg/Kg): 7.06 Log10 CFU/gram
Average Log10 CFU/gram of Abscess (S. pyogenes ATCC 8668; 20 mg/Kg): 6.10 Log10 CFU/gram
Max. change in log10CFUs from 24 hr. controls (S. pneumoniae [5]; S. pneumoniae 1629): −6.82 log10CFUs
Dose for 2 log10 Reduction from 24 hour controls (S. pneumoniae [5]; S. pneumoniae 1629, QD): 13.2 mg/Kg
Max. change in log10CFUs from 24 hr. controls (S. pneumoniae [5]; S. pneumoniae 6303): −5.27 log10CFUs
MIC 90% (S. pneumoniae [6]): 0.5 µg/mL (≈ 0.616 µM)
susceptible (S. pneumoniae [6]): 100.0%
MIC90 (S. pneumoniae [6]; Streptococcus pneumoniae): 1 µg/mL (≈ 1.23 µM)
MIC50 (M. catarrhalis): 0.12 µg/mL (≈ 0.148 µM)
MIC90 (M. catarrhalis): 0.25 µg/mL (≈ 0.308 µM)
MIC Range (pneumococci): 0.03 to 2 µg/mL
MIC range (pneumococci): 0.015 to 1 µg/mL and 0.03 to 2 µg/mL and 0.03 to 0.5 µg/mL and 0.03 to 0.06 µg/mL
MIC50 (pneumococci; [8]): 0.125 µg/mL (≈ 0.154 µM)
MIC90 (pneumococci; [8]): 0.25 µg/mL (≈ 0.308 µM)
MIC (pneumococci; Streptococcus pneumoniae, read-out: MIC range): 0.015 to 0.03 µg/mL (≈ 0.0185 to 0.0369 µM)
MIC (pneumococci; Streptococcus pneumoniae, read-out: MIC range, pneumococci, L4 mutations (27)): 0.06 to 0.25 µg/mL (≈ 0.0739 to 0.308 µM)
Dose for 1 log10 Reduction from 24 hour controls (S. pneumoniae [7]; S. pneumoniae 1629): 11.0 mg/Kg
Dose for 3 log10 Reduction from 24 hour controls (S. pneumoniae [7]; S. pneumoniae 1629): 15.5 mg/Kg
Dose for 1 log10 Reduction from 24 hour controls (S. pneumoniae [7]; S. pneumoniae 6303): 4.75 mg/Kg
Dose for 2 log10 Reduction from 24 hour controls (S. pneumoniae [7]; S. pneumoniae 6303): 6.5 mg/Kg
Dose for 3 log10 Reduction from 24 hour controls (S. pneumoniae [7]; S. pneumoniae 6303): 8.75 mg/Kg
